Experimental data as given in article PMC10492809, “A Bischler-Napieralski and homo-Mannich sequence enables diversified syntheses of sarpagine alkaloids and analogues” (Nature Communications, 2023).
Where “and” joins values, the source holds several entries; their conditions need not be identical. Equal values may be shown once. Read-outs that look alike come from different tables or passages of the source.

What was measured:
Format in all cases: cell-based
cancer cell lines = assay: In vitro cancer cell assays (antiproliferation, cell line not given)
Method: (§1) All cell lines were cultured at 37 °C with 5% CO2 in a humidified incubator. HeLa cells were grown in MEM (Gibco) supplemented with 10% fetal bovine serum (FBS, Hyclone) and 1% penicillin/streptomycin (Gibco). MIA PaCa-2, MDA-MB-231, A549, MCF-7, A375 and BEAS-2B cells were grown in DMEM (Gibco) supplemented with 10% FBS and 1% penicillin/streptomycin. CT26, and HCT116 cells were grown in RPMI-1640 supplemented with 10% FBS and 1% penicillin/streptomycin. All cell lines were purchased from the National Collection of Authenticated Cell Cultures (China).
(§2) The antiproliferative activities of the prepared compounds against tested cell lines were evaluated using a standard (MTT)-based colorimetric assay. Cells were plated at a density of 3000 cells/well in 96-well plates and allowed to adhere overnight. Then cells were treated with varying concentrations of synthesized compounds for 72 h. At the end of treatment, 20 μL of thiazolyl blue tetrazolium bromide (MTT) solution (5 mg/mL) was added to each well. Cells were incubated for an additional 4 h at 37 °C and then the medium was removed and replaced with 200 μL of DMSO. The absorbance (OD490) was read on a microplate reader (SpectraMax i3x, Molecular Devices, US). In all experiments, three replicate wells were used for each drug concentration. Each assay was performed at least three times. The IC50 values were calculated by GraphPad Prism 9, which were the mean values derived from three independent experiments.

HCT 116 = assay: MTT cell viability assay, HCT 116
Method: as §1, §2

[1] = MTT cytotoxicity towards normal cells, BEAS-2B; conditions: human; for IC50 at 72 h: BEAS-2B lung epithelial cells (normal cells), source data sheet, single values of three experiments; for CC50 at 72 h: BEAS-2B lung epithelial cells, MTT, cytotoxicity towards normal cells, mean of at least three independent experiments
Method: as §1, §2

MCF-7 = assay: MTT cell viability assay, MCF-7
Method: as §1, §2

MIA PaCa-2 = assay: MTT cell viability assay, MIA PaCa-2
Method: as §1, §2

A549 = assay: MTT cell viability assay, A549
Method: as §1, §2

CT26 = assay: MTT cell viability assay, CT26
Method: as §1, §2

MDA-MB-231 = assay: MTT cell viability assay, MDA-MB-231
Method: as §1, §2

A375 = assay: MTT cell viability assay, A375
Method: as §1, §2

Hela = assay: MTT cell viability assay, Hela
Method: as §1, §2

[2] = tested on: lung epithelial BEAS-2B cells; assay: MTT cytotoxicity towards normal cells, BEAS-2B; conditions: for CC50: MTT, 72 h, cytotoxicity towards normal cells, mean of at least three independent experiments; for IC50: source data sheet, single values of three experiments
Method: as §1, §2

[3] = Homo sapiens, HCT-116, 72 h, MTT, 72 h, mean of at least three independent experiments, read-out: IC50 HCT 116
[4] = Homo sapiens, HCT-116, source data sheet, single values of three experiments, read-out: MTT IC50 HCT-116
[5] = source data sheet, single values of three experiments, read-out: MTT IC50 HCT-116
[6] = Homo sapiens, MCF7, 72 h, MTT, 72 h, mean of at least three independent experiments, read-out: IC50 MCF-7
[7] = Homo sapiens, MCF7, source data sheet, single values of three experiments, read-out: MTT IC50 MCF-7
[8] = source data sheet, single values of three experiments, read-out: MTT IC50 MCF-7
[9] = Homo sapiens, MIA PaCa-2, 72 h, MTT, 72 h, mean of at least three independent experiments, read-out: IC50 MIA PaCa-2
[10] = Homo sapiens, MIA PaCa-2, source data sheet, single values of three experiments, read-out: MTT IC50 MIA PaCa-2
[11] = source data sheet, single values of three experiments, read-out: MTT IC50 MIA PaCa-2
[12] = Homo sapiens, A549, 72 h, MTT, 72 h, mean of at least three independent experiments, read-out: IC50 A549
[13] = Homo sapiens, A549, source data sheet, single values of three experiments, read-out: MTT IC50 A549
[14] = source data sheet, single values of three experiments, read-out: MTT IC50 A549
[15] = Mus musculus, CT26, 72 h, MTT, 72 h, mean of at least three independent experiments, read-out: IC50 CT26
[16] = Mus musculus, CT26, source data sheet, single values of three experiments, read-out: MTT IC50 CT-26
[17] = source data sheet, single values of three experiments, read-out: MTT IC50 CT-26
[18] = Homo sapiens, MDA-MB-231, 72 h, MTT, 72 h, mean of at least three independent experiments, read-out: IC50 MDA-MB-231
[19] = Homo sapiens, MDA-MB-231, source data sheet, single values of three experiments, read-out: MTT IC50 MDA-MB-231
[20] = source data sheet, single values of three experiments, read-out: MTT IC50 MDA-MB-231
[21] = Homo sapiens, A-375, 72 h, MTT, 72 h, mean of at least three independent experiments, read-out: IC50 A375
[22] = Homo sapiens, A-375, source data sheet, single values of three experiments, read-out: MTT IC50 A375
[23] = source data sheet, single values of three experiments, read-out: MTT IC50 A375
[24] = Homo sapiens, HeLa, 72 h, MTT, 72 h, mean of at least three independent experiments, read-out: IC50 Hela
[25] = Homo sapiens, HeLa, source data sheet, single values of three experiments, read-out: MTT IC50 Hela
[26] = source data sheet, single values of three experiments, read-out: MTT IC50 Hela
[27] = MTT, 72 h, mean of at least three independent experiments, read-out: IC50 HCT 116
[28] = MTT, 72 h, mean of at least three independent experiments, read-out: IC50 MCF-7
[29] = MTT, 72 h, mean of at least three independent experiments, read-out: IC50 MIA PaCa-2
[30] = MTT, 72 h, mean of at least three independent experiments, read-out: IC50 A549
[31] = MTT, 72 h, mean of at least three independent experiments, read-out: IC50 CT26
[32] = MTT, 72 h, mean of at least three independent experiments, read-out: IC50 MDA-MB-231
[33] = MTT, 72 h, mean of at least three independent experiments, read-out: IC50 A375
[34] = MTT, 72 h, mean of at least three independent experiments, read-out: IC50 Hela

| Structure (SMILES) | IC50 (HCT 116; [3]) [µM] | IC50 (HCT 116; [4]) [µM] | IC50 (HCT 116; [5]) | IC50 at 72 h [1] [µM] | CC50 at 72 h [1] [µM] | IC50 (MCF-7; [6]) [µM] | IC50 (MCF-7; [7]) [µM] | IC50 (MCF-7; [8]) | IC50 (MIA PaCa-2; [9]) [µM] | IC50 (MIA PaCa-2; [10]) [µM] | IC50 (MIA PaCa-2; [11]) | IC50 (A549; [12]) [µM] | IC50 (A549; [13]) [µM] | IC50 (A549; [14]) | IC50 (CT26; [15]) [µM] | IC50 (CT26; [16]) [µM] | IC50 (CT26; [17]) | IC50 (MDA-MB-231; [20]) | IC50 (A375; [23]) | IC50 (Hela; [26]) | also measured |
| --- | --- | --- | --- | --- | --- | --- | --- | --- | --- | --- | --- | --- | --- | --- | --- | --- | --- | --- | --- | --- | --- |
| C=C=C1CN2[C@H]3C[C@H]1[C@H](C=O)[C@@H]2Cc1c3n(S(=O)(=O)c2ccc(C(F)(F)F)cc2)c2ccccc12 [Compound 15am] |  |  |  |  |  |  |  |  |  |  |  |  |  |  |  |  |  |  |  |  | IC50 (cancer cell lines; cell line not given): > 50 µM |
| C=C=C1CN2[C@H]3C[C@H]1[C@H](C=O)[C@@H]2Cc1c3n(S(=O)(=O)c2ccc(C)cc2)c2ccc(Br)cc12 [Compound 15af] | 9.98 | 11.7 | 8.41 µM and 9.85 µM | > 100 | > 100 | 18.1 | 15 | 20.1 µM and 19.2 µM | 20.2 | 20.5 | 23 µM and 17 µM | 14.8 | 17 | 12.5 µM and 14.9 µM | 15.8 | 13.8 | 18.8 µM and 14.8 µM | 7.05 µM and 4.11 µM | 9.41 µM and 6.25 µM | 7.52 µM and 8.35 µM | IC50 (MDA-MB-231; [18]): 5.39 µM; IC50 (MDA-MB-231; [19]): 5.02 µM; IC50 (A375; [21]): 7.51 µM; IC50 (A375; [22]): 6.87 µM; IC50 (Hela; [24]): 8.56 µM; IC50 (Hela; [25]): 9.81 µM |
| C=C=C1CN2[C@H]3C[C@H]1[C@H](C=O)[C@@H]2Cc1c3n(S(=O)(=O)c2ccc(C)cc2)c2cc(Br)ccc12 [Compound 15ag] | 12.4 | 14 | 13 µM and 10.3 µM | > 100 | > 100 | 20.9 | 22.6 | 21.6 µM and 18.5 µM | 22.8 | 25 | 21.3 µM and 22 µM | 18.2 | 20.1 | 15.3 µM and 19.1 µM | 17.3 | 20 | 15.8 µM and 16.1 µM | 9.71 µM and 8.01 µM | 7.82 µM and 8.4 µM | 9.92 µM and 7.92 µM | IC50 (MDA-MB-231; [18]): 8.59 µM; IC50 (MDA-MB-231; [19]): 8.05 µM; IC50 (A375; [21]): 8.88 µM; IC50 (A375; [22]): 10.4 µM; IC50 (Hela; [24]): 9.89 µM; IC50 (Hela; [25]): 11.8 µM |
| C=C=C1CN2[C@H]3C[C@H]1[C@H](C=O)[C@@H]2Cc1c3n(S(=O)(=O)c2ccc(C)cc2)c2cccc(Br)c12 [Compound 15ae] |  |  | 30 µM and 26.1 µM and 27.9 µM |  |  |  |  | 35.2 µM and 29.7 µM and 31.4 µM |  |  | 39.9 µM and 44.1 µM and 36.8 µM |  |  | 44.1 µM and 40.9 µM and 43.6 µM |  |  | 32.8 µM and 27.5 µM and 30 µM | 25.1 µM and 24.3 µM and 26.8 µM | 23.6 µM and 17.1 µM and 20.5 µM | 34.5 µM and 31.3 µM and 30.4 µM | IC50 (HCT 116; [27]): 28 µM; CC50 [2]: > 100 µM; IC50 [2]: > 100 µM; IC50 (MCF-7; [28]): 32.1 µM; IC50 (MIA PaCa-2; [29]): 40.3 µM; IC50 (A549; [30]): 42.9 µM; IC50 (CT26; [31]): 30.1 µM; IC50 (MDA-MB-231; [32]): 25.4 µM; IC50 (A375; [33]): 20.4 µM; IC50 (Hela; [34]): 32.1 µM |
| CC=C1CN2C3CC1C(C=O)C2Cc1c3n(S(=O)(=O)c2ccc(C)cc2)c2ccccc12 (stereo not drawn) [Compound 15ar] |  |  | 8.05 µM and 5.83 µM and 7.01 µM |  |  |  |  | 19.9 µM and 15.7 µM and 17.7 µM |  |  | 14.9 µM and 13 µM and 12 µM |  |  | 16.5 µM and 14 µM and 11.7 µM |  |  | 10.9 µM and 8.18 µM and 9.11 µM | 5.08 µM and 4.02 µM and 4.8 µM | 5.71 µM and 3.87 µM and 4.03 µM | 7.46 µM and 6.04 µM and 4.98 µM | IC50 (HCT 116; [27]): 6.96 µM; CC50 [2]: > 100 µM; IC50 [2]: > 100 µM; IC50 (MCF-7; [28]): 17.8 µM; IC50 (MIA PaCa-2; [29]): 13.3 µM; IC50 (A549; [30]): 14.1 µM; IC50 (CT26; [31]): 9.39 µM; IC50 (MDA-MB-231; [32]): 4.63 µM; IC50 (A375; [33]): 4.54 µM; IC50 (Hela; [34]): 6.16 µM |
| C=C=C1CN2[C@H]3C[C@H]1[C@H](C(=O)O)[C@@H]2Cc1c3n(S(=O)(=O)c2ccc(C)cc2)c2ccccc12 [Compound 15an] |  |  |  |  |  |  |  |  |  |  |  |  |  |  |  |  |  |  |  |  | loss in antiproliferation activity on replacing the aldehyde group (cancer cell lines; SAR statement in words): complete |
